Test results reported in the SangsterLogP compilation.

Assay: method code SF-HPLC, from DOI: 10.1111/j.2042-7158.1987.tb06262.x, PMID: 2884287
Details: pH 3.0

logD | SMILES
-0.52 | Cn1c(=O)c2[nH]c(=O)[nH]c2n(C)c1=O
-0.57 | Cn1c(=O)[nH]c2[nH]c(=O)[nH]c2c1=O
-0.37 | Cn1c(=O)c2c([nH]c(=O)n2C)n(C)c1=O
-1.32 | CN(C=O)c1c(N)n(C)c(=O)n(C)c1=O
-1.08 | Cn1c(=O)[nH]c(=O)c2[nH]c(=O)[nH]c21
-0.22 | Cn1c(=O)[nH]c2[nH]c(=O)n(C)c2c1=O
-1.18 | Cn1c(=O)[nH]c2[nH]c(=O)[nH]c(=O)c21
-2.03 | CN(C=O)c1c(N)[nH]c(=O)n(C)c1=O
-0.27 | Cn1c(=O)[nH]c2nc[nH]c2c1=O
-1.3 | CN(C=O)c1c(N)n(C)c(=O)[nH]c1=O
-0.89 | Cn1cnc2[nH]c(=O)[nH]c(=O)c21
-0.64 | Cn1c(N)c(NC=O)c(=O)n(C)c1=O
-1.33 | Cn1c(=O)[nH]c(=O)c2c1[nH]c(=O)n2C
